Reference: patent US20240360179A1, “STAPLED PEPTIDES AND METHODS THEREOF” (FOG PHARMACEUTICALS, INC., priority 2021, published 2024)

What follows are compounds tested on COLO320DM cells (assay: COLO320DM proliferation assay (CellTiter-Glo)). Conditions: read-out: COLO320DM Proliferation Abs IC50.
Type: cell-based, human
Protocol: COLO320DM proliferation assay IC50: In some embodiments, inhibition of cell proliferation by provided technologies were assessed using cell lines related to or from certain conditions, disorders or diseases. In some embodiments, cell proliferation was assessed in COLO320DM cells. In some embodiments, assessment was performed using the following procedure: On Day 1, cultured COLO320DM cells in a T75 flask were trypsinized in 3 mL of 0.250% trypsin/EDTA for 5 min and quenched with 10 mL RPMI-1640+4% HI FBS assay media. The cells were spun down at 1200 rpm for 5 min, the cell pellet collected and re-suspended at 5000 cells/mL in assay media. Using a Combi liquid handler, cells were dispensed (50 uL, 250 cells/well) into three 384 well plates. Plates were incubated at 37° C., 5% CO2 for 18-22 h. On day 2, compounds were added. A liquid handling system was used to prepare the compound dilution and dispense compound into assay plates. The compounds were serially diluted 1/2 in 90% DMSO to create a 7 point dose curve. From compound plate, 100 nL of compound were dispensed directly into wells of the assay plates to create a dose curve starting at 20 uM and ending at 313 nM. Assay plates were incubated at 37° C., 5% CO2 for 96 h. On day 6, assay plates were removed from the incubator and allowed to sit at room temperature for 30 min. Using a liquid handler, 20 uL of CellTiter Glo reagent was added to each well. The assay plates were shaken for 2 min and allowed to sit on the bench for 10-15 minutes. The assay plates were read using the CellTiter Glo protocol on a GloMax microplate reader, and the data analyzed using GraphPad Prism. Activities of various agents, including various stapled peptides in Table E2, were confirmed.
In some embodiments, an assessment was performed as follows. On day 0, cells were seeded in cell culture media (RPMI1640, 4% FBS) in a 96-well plate at desired density, typically at 1000 cells/well. On day 1, 10 mM agent stock solution (in DMSO) was first serially diluted into DMSO at 1:2 ratio, followed by diluting with cell culture media at two times of the final concentrations. Finally, agent-containing media were introduced to cell culture wells already having the same volume of cell culture media. Cells were incubated with agents for desired days before lysed for CellTiter-Glo® Luminescent Cell Viability Assay according to the manufacture instruction (Promega, G7570). Luminescent signal was obtained from a microplate reader (GloMax, Promega). Cell viability data was expressed as % relative to DMSO control wells.
Proliferation Assay. In some embodiments, various proliferation assays are utilized to characterize or assess provided technologies. In some embodiments, on day 0, cells were seeded in cell culture media in a 96-well plate at desired density, typically at 1000 cells/well. On day 1, 10 mM compound stock solution was first serially diluted into DMSO, followed by diluting with cell culture media at two times of the final concentrations. Finally, compound-containing media were introduced to cell culture wells already having the same volume of cell culture media. Cells were incubated with compounds for desired days before lysed for CTG according to the manufacture instruction (G7570, Promega). Luminescent signal was obtained from a microplate reader (GloMax, Promega).

Row | Compound | IC50 [µM]
1 | Ac-PL3-Asp-Npg-B5-Asp-3COOHF-Aib-Ala-Phe-Lys*3-PyrS2-2NH2F-BztA-GlnR*3-Ala-NH2 [I-1736] | ≤ 10
2 | Ac-PL3-Asp-Npg-B5-Asp-3COOHF-Aib-Ala-Phe-Lys*3-PyrS2-3Thi-BztA-GlnR*3-Ala-Ala-Arg-Ala-Ala-Ala-Ala-NH2 [I-1155] | ≤ 10
3 | Ac-PL3-Asp-Ile-B5-Asp-3COOHF-Aib-Ala-Phe-1MeK*3-PyrS2-Phe-34ClF-hGlnR*3-NH2 [I-1373] | > 20
4 | Ac-PL3-Asp-DipA-B5-Asp-3COOHF-Ala-Ala-Phe-Lys*3-PyrS2-3Thi-34ClF-GlnR*3-NH2 [I-1111] | ≤ 10
5 | CC(=O)N1CCC[C@]12CC=CCCCC1(CCCC=CCCCOC(=O)N3CC[C@@]4(C3)NC(=O)[C@H](CCCCNC(=O)CC[C@@H](C(=O)N[C@@H](C)C(N)=O)NC(=O)[C@H](Cc3csc5ccccc35)NC(=O)[C@H](Cc3cccnc3)NC4=O)NC(=O)[C@H](Cc3ccccc3)NC(=O)[C@H](C)NC(=O)C(C)(C)NC(=O)[C@H](Cc3cccc(C(=O)O)c3)NC(=O)[C@H](CC(=O)O)NC1=O)NC(=O)[C@H](CC(C)(C)C)NC(=O)[C@H](CC(=O)O)NC2=O (relative stereo) [I-300, Ac-PL3-Asp-Npg-B5-Asp-3COOHF-Aib-Ala-Phe-Lys*3-PyrS2-3PyrA-BztA-GlnR*3-Ala-NH2] | > 20
6 | Ac-PL3-Asp-Npg-B5-Asp-3COOHF-Aib-Ala-Phe-Lys*3-PyrS2-hCypA-BztA-GlnR*3-Val-Glu-Ala-NH2 [I-1346] | ≤ 10
7 | Ac-PL3-Asp-DipA-B5-Asp-3COOHF-Ala-Ala-Phe-Lys*3-PyrS2-3Thi-34ClF-GlnR*3-Ala-Ala-[Ac-dPEG2]-Lys-NH2-NH2 [I-1787] | ≤ 10
8 | Ac-PL3-Asp-Ile-B5-Asp-3COOHF-CyLeu-Ala-Phe-Lys*3-PyrS2-3Thi-34ClF-GlnR*3-NH2 [I-1040] | ≤ 10
9 | Ac-PL3-Asp-DipA-B5-Asp-3COOHF-nLeu-Ala-Phe-Lys*3-PyrS2-3Thi-BztA-GlnR*3-Ala-NH2 [I-986] | ≤ 10
10 | Ac-PL3-Asp-DipA-B5-Asp-3COOHF-Ala-Ala-Phe-Lys*3-PyrS2-3Thi-34ClF-GlnR*3-Ala-Ala-[Oct-PEG8]-Lys-NH2-NH2 [I-1790] | ≤ 10
11 | Ac-PL3-Asp-Ile-B5-Asp-3COOHF-Ala-Ala-Phe-Lys*3-PyrS2-3Thi-BztA-GlnR*3-Ala-NH2 [I-970] | ≤ 10
12 | Ac-PL3-Asp-Npg-B5-Asp-3COOHF-Aib-Ala-Phe-Lys*3-PyrS2-2FF-34ClF-GlnR*3-NH2 [I-1537] | ≤ 10
13 | Ac-PL3-Asp-Npg-B5-Asp-3COOHF-Aib-Ala-Phe-Lys*3-PyrS2-3Thi-34ClF-GlnR*3-Pro-NH2 [I-868] | ≤ 10
14 | Ac-PL3-Asp-DipA-B5-Asp-3COOHF-Val-Ala-Phe-Lys*3-PyrS2-Phe-BztA-GlnR*3-dPro-NH2 [I-1855] | ≤ 10
15 | Ac-PL3-Asp-Npg-B5-Asp-3COOHF-Aib-Ala-Phe-Lys*3-PyrS2-3Thi-BztA-GlnR*3-Ala-Ala-Val-Pro-Thr-Leu-Lys-NH2 [I-813] | ≤ 10
16 | Ac-PL3-Asp-Npg-B5-Asp-3COOHF-Aib-Ala-Phe-Lys*3-PyrS2-3Thi-BztA-GlnR*3-Ala-Ala-Arg-Ala-Ala-Ala-Arg-NH2 [I-1157] | ≤ 10
17 | CC(=O)N1CCC[C@@]1(C)C(=O)N[C@@H](CC(=O)O)C(=O)N[C@H](C(=O)N[C@]1(C)CCCCCCCCOC(=O)N2CC[C@@]3(C2)NC(=O)[C@H](CCCCNC(=O)CC[C@@H](C(=O)N[C@@H](C)C(N)=O)NC(=O)[C@H](Cc2csc4ccccc24)NC(=O)[C@H](Cc2ccsc2)NC3=O)NC(=O)[C@H](Cc2ccccc2)NC(=O)[C@H](C)NC(=O)C(C)(C)NC(=O)[C@H](Cc2cccc(C(=O)O)c2)NC(=O)[C@H](CC(=O)O)NC1=O)C(C)C (relative stereo) [I-237, Ac-MePro-Asp-Val-R5-Asp-3COOHF-Aib-Ala-Phe-Lys*3-PyrS2-3Thi-BztA-GlnR*3-Ala-NH2] | > 20
18 | Ac-PL3-Asp-Npg-B5-Asp-3COOHF-Aib-Ala-Phe-Lys*3-PyrS2-3Thi-BztA-GlnR*3-Ala-Arg-Ala-Ala-Ala-Arg-Ala-NH2 [I-1156] | ≤ 10
